According to the supplement of paper PMC10307832:

What was measured:
Experiment in all cases: relative viability (nuclei count vs DMSO), 5 days (fraction); higher = more cells survive
[1] = compound: C1=CC=C(C(=C1)C2=CC=C(C=C2)C3=CSC4=C3C(=C(C(=O)N4)C#N)O)O + CS(=O)(=O)CCNCc1ccc(-c2ccc3ncnc(Nc4ccc(OCc5cccc(F)c5)c(Cl)c4)c3c2)o1 [Lapatinib] (partner 2 µM)
Method in brief: (§1)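 Cells from lung cancer lines were seeded into 1536-well plates and, one day later, dosed by pin tool. Treatments were either a single drug or a fixed dose of an anchor drug with five library-drug doses (not always all listed) in √10 steps. After 5 days, nuclei were stained in a one-step fixation (final 0.05% Triton X-100, 1% formaldehyde, 1 ug/ml Hoechst) and counted on 4× images, and relative viability is the treated-to-vehicle nuclei ratio, as the median of duplicate plates.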

[2] = compound: C1=CC=C(C(=C1)C2=CC=C(C=C2)C3=CSC4=C3C(=C(C(=O)N4)C#N)O)O + CC1(C)CCC(c2ccc(Cl)cc2)=C(CN2CCN(c3ccc(C(=O)NS(=O)(=O)c4ccc(N[C@H](CCN5CCOCC5)CSc5ccccc5)c(S(=O)(=O)C(F)(F)F)c4)cc3)CC2)C1 [Navitoclax] (partner 0.5 µM)
Method in brief: as §1

TGX 221 + Bortezomib = compound: CC1=CN2C(=O)C=C(N=C2C(=C1)C(C)NC3=CC=CC=C3)N4CCOCC4 [TGX 221] + CC(C)C[C@H](NC(=O)[C@H](Cc1ccccc1)NC(=O)c1cnccn1)B(O)O [Bortezomib] (partner 0.002 µM)
Method in brief: as §1

TGX 221 + Linsitinib = compound: CC1=CN2C(=O)C=C(N=C2C(=C1)C(C)NC3=CC=CC=C3)N4CCOCC4 [TGX 221] + C[C@]1(O)C[C@@H](c2nc(-c3ccc4ccc(-c5ccccc5)nc4c3)c3c(N)nccn32)C1 [Linsitinib] (partner 1 µM)
Method in brief: as §1

Row | Cell Line | relative viability ([1]; first compound 0.08 µM) | relative viability ([1]; first compound 0.253 µM) | relative viability ([1]; first compound 0.8 µM) | relative viability ([1]; first compound 2.53 µM) | relative viability ([1]; first compound 8 µM) | relative viability ([2]; first compound 0.08 µM) | relative viability ([2]; first compound 0.253 µM) | relative viability ([2]; first compound 0.8 µM) | relative viability ([2]; first compound 2.53 µM) | relative viability ([2]; first compound 8 µM) | relative viability (TGX 221 + Bortezomib; first compound 0.08 µM) | relative viability (TGX 221 + Bortezomib; first compound 0.253 µM) | relative viability (TGX 221 + Bortezomib; first compound 0.8 µM) | relative viability (TGX 221 + Bortezomib; first compound 2.53 µM) | relative viability (TGX 221 + Bortezomib; first compound 8 µM) | relative viability (TGX 221 + Linsitinib; first compound 0.08 µM) | relative viability (TGX 221 + Linsitinib; first compound 0.253 µM) | relative viability (TGX 221 + Linsitinib; first compound 0.8 µM) | relative viability (TGX 221 + Linsitinib; first compound 2.53 µM) | relative viability (TGX 221 + Linsitinib; first compound 8 µM)
1 | NCI-H2085 | 0.608 | 0.841 | 0.677 | 0.685 | 0.671 | 1.12 | 1.31 | 1.06 | 1.25 | 1.01 | 1.05 | 0.856 | 0.889 | 0.809 | 0.724 | 0.947 | 0.774 | 0.673 | 0.309 | 0.408
2 | PC-14 | 0.287 | 0.38 | 0.3 | 0.256 | 0.269 | 0.951 | 0.992 | 1.15 | 1.1 | 0.798 | 0.895 | 0.89 | 0.828 | 0.804 | 0.874 | 0.95 | 0.866 | 0.898 | 0.904 | 0.874
3 | Calu-6 | 1.03 | 1.03 | 1.21 | 1.27 | 1.03 | 0.831 | 0.981 | 1.03 | 0.843 | 0.785 | 1.02 | 0.973 | 1.22 | 1 | 0.896 | 0.909 | 0.913 | 0.935 | 0.855 | 0.84
4 | HCC-366 | 1.24 | 0.948 | 1.24 | 1.01 | 1.01 | 0.959 | 1.18 | 1.05 | 1.11 | 0.501 | 0.863 | 1.03 | 1.12 | 0.99 | 1.09 | 0.673 | 0.434 | 0.598 | 0.545 | 0.291
5 | NCI-H2126 | 0.737 | 0.748 | 0.728 | 0.766 | 0.834 | 0.866 | 0.924 | 0.798 | 0.884 | 0.951 | 1.09 | 1.08 | 1.06 | 1.06 | 1.08 | 0.632 | 0.604 | 0.579 | 0.576 | 0.593
6 | NCI-H2023 | 0.925 | 0.94 | 0.579 | 0.729 | 0.88 | 0.891 | 0.89 | 0.953 | 1.03 | 1.16 | 0.947 | 0.864 | 1.06 | 0.861 | 0.857 | 0.546 | 0.469 | 0.395 | 0.321 | 0.218
7 | SK-LU-1 | 0.977 | 1.1 | 0.685 | 1.05 | 0.682 | 0.891 | 0.799 | 0.946 | 0.898 | 0.742 | 1.04 | 1.09 | 1.04 | 1.38 | 1.11 | 0.96 | 0.904 | 0.922 | 1.06 | 0.858
8 | NCI-H2347 | 0.844 | 1.17 | 0.889 | 0.916 | 0.932 | 0.642 | 0.781 | 0.776 | 0.79 | 0.647 | – | 0.899 | 0.886 | 0.877 | 0.752 | 0.931 | 0.972 | 0.936 | 0.885 | 0.786
9 | HCC-15 | 0.702 | 0.918 | 0.897 | 0.962 | 0.783 | 0.663 | 0.809 | 0.763 | 0.858 | 0.644 | 1.02 | 0.953 | 0.93 | 1.04 | 1.06 | 0.893 | 0.86 | 0.878 | 0.845 | 0.827
10 | HCC-44 | 0.863 | 1.07 | 0.928 | 1.02 | 0.993 | 0.909 | 1.09 | 1 | 0.938 | 0.65 | 0.951 | 0.935 | 0.945 | 0.851 | 0.997 | 0.646 | 0.53 | 0.62 | 0.464 | 0.359
11 | NCI-H1355 | 0.949 | 0.966 | 1.1 | 0.81 | 0.999 | 1.1 | 1.02 | 0.935 | 0.957 | 0.777 | 1.18 | 1.16 | 1.26 | 1.12 | 1.08 | 0.743 | 0.666 | 0.621 | 0.453 | 0.546
12 | NCI-H2405 | 1.01 | 1.12 | 1.11 | 0.984 | 1.04 | 0.924 | 1.04 | 0.887 | 0.776 | 0.767 | 0.94 | 1.04 | 1.01 | 0.92 | 0.953 | 0.595 | 0.698 | 0.639 | 0.697 | 0.573
13 | EKVX | 0.225 | 0.208 | 0.201 | 0.195 | 0.211 | 0.897 | 1.13 | 1.03 | 0.922 | 0.903 | 1.02 | 1.11 | 0.939 | 0.985 | 0.986 | 0.756 | 0.851 | 0.727 | 0.715 | 0.637
14 | NCI-H1993 | 0.889 | 0.814 | 0.764 | 0.869 | 0.782 | 0.951 | 0.925 | 1.05 | 0.781 | 0.879 | 0.932 | 0.838 | 0.963 | 0.785 | 0.892 | 0.806 | 0.774 | 0.701 | 0.641 | 0.735
15 | HOP-62 | 0.766 | 0.888 | 1.1 | 1.19 | 0.871 | 1.22 | 1.1 | 1.04 | 1.18 | 0.922 | 0.605 | 0.85 | 0.788 | 0.847 | 0.93 | 1.06 | 1.09 | 1.02 | 1.01 | 0.889
16 | NCI-H1755 | 0.938 | 1.11 | 0.875 | 1.11 | 1.1 | 1.03 | 1.13 | 0.98 | 1.08 | 0.78 | 1.03 | 0.855 | 0.97 | 0.887 | 0.886 | 0.956 | 0.935 | 0.835 | 0.629 | 0.557
